Reference: US20120122896A1, “2,1,3-BENZOXADIAZOL DERIVATIVES FOR THE INHIBITION OF INFLUENZA A AND B VIRUS AND RESPIRATORY SYNCYTIAL VIRUS REPLICATION” (PIKE PHARMA GMBH, priority 2009, published 2012)
Like-named read-outs stand apart in the source and are kept apart here.

Legend:
[1] = target: interaction between PB1 and PA (Influenza A virus, UniProt P03433); test: biochemical; type: binding; settings: for IC50: calculated from inhibition at maximum obtainable concentration where solubility too low, read-out: IC50 [μM] (ELISA); for inhibition at 1000 µM: highest concentration used, read-out: Max. Inhibition (ELISA) at 1000 μM
RSV (Long strain) = test: RSV induced cell death reduction in HEp-2 cells; type: cell-based, respiratory syncytial virus; settings: for RSV activity, Maximum inhibition (in words): serial dilution 100 to 0.14 μM, 72 h; for inhibition at 33 µM: HEp-2, read-out: RSV activity, Maximum inhibition
[2] = system: influenza virus (A/WSN/33); test: plaque reduction assay, influenza virus in MDCK cells; type: cell-based
[3] = human respiratory syncytial virus, HEp-2
[4] = human respiratory syncytial virus, HEp-2, read-out: RSV activity, Maximum inhibition
[5] = human respiratory syncytial virus

SMILES | IC50 [1] [µM] | Active in ELISA ([1]; prescreening) | RSV activity, Maximum inhibition (in words) (RSV (Long strain)) | inhibition of RSV replication (summary in words) (RSV (Long strain)) | further results
Cc1ccc(CSc2ccc([N+](=O)[O-])c3nonc23)cc1 [PKE077, 4-[(4-methylbenzyl)thio]-7-nitro-2,1,3-benzoxadiazole] | > 1000 | Yes | inactive | – | inhibition at 1000 µM [1]: 33%
CC(C)(C)c1csc(-c2ccc3nonc3c2)n1 [PKE140, 5-[4-(tert-butyl)-1,3-thiazol-2-yl]-2,1,3-benzoxadiazole] | > 1000 | Yes | inactive | – | inhibition at 1000 µM [1]: 34%
O=[N+]([O-])c1ccc(Nc2cccc(F)c2)c2nonc12 [PKE071, N4-(3-fluorophenyl)-7-nitro-2,1,3-benzoxadiazol-4-amine] | – | No | – | effective | IC50 (RSV (Long strain); [3]): 4 µM; inhibition at 11 µM (RSV (Long strain); [4]): 73%
Cc1ccc(Nc2ccc([N+](=O)[O-])c3nonc23)cc1 [PKE074, N4-(4-methylphenyl)-7-nitro-2,1,3-benzoxadiazol-4-amine] | – | No | – | – | –
Nc1nc(Sc2ccc([N+](=O)[O-])c3nonc23)c2[nH]cnc2n1 [PKE110, 6-[(4-nitro-2,1,3-benzoxadiazol-7-yl)sulfanyl]-7H-purin-2-amine] | – | No | inactive | – | –
O=[N+]([O-])c1ccc(S(=O)(=O)Cc2ccccc2)c2nonc12 [PKE108, 4-nitro-7-(phenylmethylsulfonyl)-2,1,3-benzoxadiazole] | 500 | Yes | inactive | – | inhibition of the replication of influenza virus, particularly influenza A (summary in words) [2]: effectively inhibited
COc1ccc(Nc2ccc([N+](=O)[O-])c3nonc23)cc1 [PKE119, N-(4-methoxyphenyl)-4-nitro-2,1,3-benzoxadiazol-7-amine] | – | – | – | effective | inhibition at 11 µM (RSV (Long strain); [4]): 21%
Nc1nc(Sc2ccc([N+](=O)[O-])c3nonc23)c2ncn(C3OC(CO)C(O)C3O)c2n1 (centres unmarked) [PKE138, 2-[2-amino-6-[(4-nitro-2,1,3-benzoxadiazol-7-yl)sulfanyl]purin-9-yl]-5-(hydroxymethyl)oxolane-3,4-diol] | 250 | Yes | inactive | – | inhibition of the replication of influenza virus, particularly influenza A (summary in words) [2]: effectively inhibited
O=[N+]([O-])c1ccc(SCc2ccccc2)c2nonc12 [PKE107, 4-nitro-7-(phenylmethylsulfanyl)-2,1,3-benzoxadiazole] | 125 | Yes | inactive | – | inhibition of the replication of influenza virus, particularly influenza A (summary in words) [2]: effectively inhibited
O=[N+]([O-])c1c(NCc2ccccc2)ccc2nonc12 [PKE190, N-benzyl-4-nitro-2,1,3-benzoxadiazol-5-amine] | > 1000 | Yes | inactive | – | inhibition at 1000 µM [1]: 37%
Cc1ccccc1Nc1ccc([N+](=O)[O-])c2nonc12 [PKE131, N-(2-methylphenyl)-4-nitro-2,1,3-benzoxadiazol-7-amine] | – | No | – | effective | inhibition at 11 µM (RSV (Long strain); [4]): 48%
O=[N+]([O-])c1ccc(Sc2cccc(Cl)c2)c2nonc12 [PKE080, 4-[(3-chlorophenyl)thio]-7-nitro-2,1,3-benzoxadiazole] | 60 | Yes | – | – | –
O=[N+]([O-])c1ccc(Sc2ccc(F)cc2)c2nonc12 [PKE079, 4-[(4-fluorophenyl)thio]-7-nitro-2,1,3-benzoxadiazole] | 125 | Yes | – | effective | inhibition of the replication of influenza virus, particularly influenza A (summary in words) [2]: effectively inhibited; IC50 (RSV (Long strain); [3]): 7 µM; inhibition at 11 µM (RSV (Long strain); [4]): 53%
O=[N+]([O-])c1ccc(N2CCN(Cc3ccccc3)CC2)c2c1no[n+]2[O-] [PKE133, 4-nitro-1-oxido-7-[4-(phenylmethyl)piperazin-1-yl]-2,1,3-benzoxadiazol-1-ium] | – | No | inactive | – | –
O=C(OCCSc1ccc([N+](=O)[O-])c2nonc12)c1ccc(Cl)cc1Cl [PKE081, 2-[(7-nitro-2,1,3-benzoxadiazol-4-yl)thio]ethyl 2,4-dichlorobenzoate] | – | No | – | – | –
O=[N+]([O-])c1ccc(Nc2ccc(F)cc2)c2nonc12 [PKE070, N4-(4-fluorophenyl)-7-nitro-2,1,3-benzoxadiazol-4-amine] | – | No | – | effective | IC50 (RSV (Long strain); [3]): 4 µM; inhibition at 11 µM (RSV (Long strain); [4]): 75%
Cc1cccc(Nc2ccc([N+](=O)[O-])c3nonc23)c1 [PKE078, N4-(3-methylphenyl)-7-nitro-2,1,3-benzoxadiazol-4-amine] | – | No | – | effective | IC50 (RSV (Long strain); [3]): 6 µM; inhibition at 11 µM (RSV (Long strain); [4]): 56%
COc1ccc(CNc2ccc([N+](=O)[O-])c3nonc23)cc1 [PKE130, N-[(4-methoxyphenyl)methyl]-4-nitro-2,1,3-benzoxadiazol-7-amine] | – | – | – | effective | Active in ELISA [1]: No; inhibition at 33 µM (RSV (Long strain); [5]): 48%

SMILES | IC50 [1] [µM] | Active in ELISA ([1]; prescreening) | RSV activity, Maximum inhibition (in words) (RSV (Long strain)) | inhibition of RSV replication (summary in words) (RSV (Long strain)) | further results
Cc1ccc(Sc2ccc([N+](=O)[O-])c3nonc23)cc1 [PKE068, 4-[(4-methylphenyl)thio]-7-nitro-2,1,3-benzoxadiazole] | > 1000 | Yes | – | – | inhibition at 1000 µM [1]: 46%
O=[N+]([O-])c1ccc(Sc2ccc(Cl)cc2Cl)c2nonc12 [PKE075, 4-[(2,4-dichlorophenyl)thio]-7-nitro-2,1,3-benzoxadiazole] | > 1000 | Yes | – | – | inhibition at 1000 µM [1]: 35%
CCCCN1CCN(c2ccc([N+](=O)[O-])c3no[n+]([O-])c23)CC1 [PKE134, 7-(4-butylpiperazin-1-yl)-4-nitro-1-oxido-2,1,3-benzoxadiazol-1-ium] | – | No | inactive | – | –
O=[N+]([O-])c1ccc(N2CCCC2)c2nonc12 [PKE072, 4-nitro-7-tetrahydro-1H-pyrrol-1-yl-2,1,3-benzoxadiazole] | – | – | – | effective | Active in ELISA [1]: No; inhibition at 33 µM (RSV (Long strain); [5]): 44%
O=[N+]([O-])c1ccc(NCc2cccs2)c2nonc12 [PKE073, N4-(2-thienylmethyl)-7-nitro-2,1,3-benzoxadiazol-4-amine] | – | – | – | effective | Active in ELISA [1]: No; inhibition at 33 µM (RSV (Long strain); [5]): 42%
CCN(CC)c1cc(Cl)c2nonc2c1[N+](=O)[O-] [PKE191, 7-chloro-N,N-diethyl-4-nitro-2,1,3-benzoxadiazol-5-amine] | – | No | – | effective | inhibition at 11 µM (RSV (Long strain); [4]): 20%
COc1ccc(CSc2ccc([N+](=O)[O-])c3nonc23)cc1 [PKE060, 4-[(4-methoxybenzyl)thio]-7-nitro-2,1,3-benzoxadiazole] | – | Yes | – | – | –
CCN(CC)CCCNc1ccc([N+](=O)[O-])c2no[n+]([O-])c12 [PKE136, N,N-diethyl-N′-(4-nitro-1-oxido-2,1,3-benzoxadiazol-1-ium-7-yl)propane-1,3-diamine] | – | No | inactive | – | –
COc1ccc(S(=O)(=O)OCCSc2ccc([N+](=O)[O-])c3nonc23)cc1 [PKE061, 2-[(7-nitro-2,1,3-benzoxadiazol-4-yl)thio]ethyl 4-methoxybenzene-1-sulfonate] | > 1000 | Yes | inactive | – | inhibition at 1000 µM [1]: 37%
COc1ccc(C(=O)OCCSc2ccc([N+](=O)[O-])c3nonc23)cc1 [PKE082, 2-[(7-nitro-2,1,3-benzoxadiazol-4-yl)thio]ethyl-4-methoxybenzoate] | 100 | Yes | – | – | –
O=[N+]([O-])c1ccc(N2CCN(c3ccccc3)CC2)c2nonc12 [PKE135, 4-nitro-7-(4-phenylpiperazin-1-yl)-2,1,3-benzoxadiazole] | – | No | inactive | – | –
COc1ccc(Nc2ccc([N+](=O)[O-])c3nonc23)cc1 [PKE069, N4-(4-methoxyphenyl)-7-nitro-2,1,3-benzoxadiazol-4-amine] | – | No | inactive | – | –
O=[N+]([O-])c1ccc(Nc2ccccc2)c2nonc12 [PKE118, 4-nitro-N-phenyl-2,1,3-benzoxadiazol-7-amine] | – | No | – | effective | inhibition at 11 µM (RSV (Long strain); [4]): 44%
O=c1[nH]nc(Sc2ccccc2)c2nncn12 [PKE217, 8-phenylsulfanyl-6H-[1,2,4]triazolo[4,3-d][1,2,4]triazin-5-one] | – | No | – | – | –
O=[N+]([O-])c1ccc(Sc2ncnc3nc[nH]c23)c2nonc12 [PKE139, 4-nitro-7-(7H-purin-6-ylsulfanyl)-2,1,3-benzoxadiazole] | – | No | inactive | – | –
O=[N+]([O-])c1ccc(SCCO)c2nonc12 [PKE076, 2-[(7-nitro-2,1,3-benzoxadiazol-4-yl)thio]ethan-1-ol] | – | – | inactive | – | –
O=C(OCCSc1ccc([N+](=O)[O-])c2nonc12)c1ccccc1 [PKE083, 2-[(7-nitro-2,1,3-benzoxadiazol-4-yl)thio]ethyl benzoate] | – | No | inactive | – | –
O=[N+]([O-])c1ccc(Nc2ccc(Cl)cc2)c2nonc12 [PKE120, N-(4-chlorophenyl)-4-nitro-2,1,3-benzoxadiazol-7-amine] | – | No | – | effective | IC50 (RSV (Long strain); [3]): 2 µM; inhibition at 3.7 µM (RSV (Long strain); human respiratory syncytial virus, HEp-2, at 3.7 μM, read-out: RSV activity, Maximum inhibition): 67%
